Among the data in patent US11198713B2, “Agents modulating beta-catenin functions and methods thereof” (FOG PHARMACEUTICALS, INC., priority 2017, dated 2021) are EC50 values, retold here.

One may read the EC50 as the concentration at which the effect is half-maximal.

Molecules are shown by their SMILES. Bounds are passed on as bounds.

The experiment has as its target T1, full-length beta-catenin (Axin site) (Homo sapiens, UniProt P35222).
T1 construct: 15 nM full-length beta-catenin, 20 nM FITC labeled peptide in buffer
T1 sequence (P35222 1-781): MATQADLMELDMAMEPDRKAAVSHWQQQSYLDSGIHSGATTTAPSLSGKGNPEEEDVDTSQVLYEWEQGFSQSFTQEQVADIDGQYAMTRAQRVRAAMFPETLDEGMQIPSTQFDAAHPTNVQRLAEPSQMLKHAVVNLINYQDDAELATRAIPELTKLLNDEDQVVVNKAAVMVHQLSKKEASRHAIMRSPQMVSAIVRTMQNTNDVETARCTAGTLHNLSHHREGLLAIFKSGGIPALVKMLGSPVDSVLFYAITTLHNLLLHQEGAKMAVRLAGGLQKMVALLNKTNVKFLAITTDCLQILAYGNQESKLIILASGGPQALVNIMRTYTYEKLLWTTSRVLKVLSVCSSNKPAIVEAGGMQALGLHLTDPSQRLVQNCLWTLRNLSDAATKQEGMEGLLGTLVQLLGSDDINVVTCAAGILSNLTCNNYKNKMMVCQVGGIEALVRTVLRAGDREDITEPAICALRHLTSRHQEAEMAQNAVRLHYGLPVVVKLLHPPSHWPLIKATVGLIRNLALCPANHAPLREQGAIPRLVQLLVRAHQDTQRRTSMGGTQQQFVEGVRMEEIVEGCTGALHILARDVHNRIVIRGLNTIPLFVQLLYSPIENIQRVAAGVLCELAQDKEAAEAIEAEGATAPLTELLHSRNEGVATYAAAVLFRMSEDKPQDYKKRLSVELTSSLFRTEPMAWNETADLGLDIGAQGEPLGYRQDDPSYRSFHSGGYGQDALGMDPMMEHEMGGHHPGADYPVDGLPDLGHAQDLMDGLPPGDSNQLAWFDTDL
The experiment in a line: Competition fluorescence polarization assay (Axin site probe). The format is binding. The note with it: competition fluorescence polarization, Table 2; read-out: in vitro FP EC50. How it is done: FIG. 1. […] Peptide solutions were prepared in buffer (50 mM Tris pH 8.0, 250 mM NaCl, 2% glycerol, 0.5 mM EDTA, 0.02% w/v sodium azide) using a 3-fold serial dilution from 5 μM. Probe solution (15 nM full-length 13-Catenin, 20 nM FITC labeled peptide (FITC-PEG1-PQ-S5-ILD-S5-HVRRVWR (SEQ ID NO: 1) (hydrocarbon staple formed by two S5 via olefin metathesis)) in buffer) was prepared and incubated for 5 minutes, then 40 μL per well plated in a black polystyrene 384-well plate (Corning). Equal volume of the titrated peptide was added to the plate and incubated protected from light for 15 minutes prior to read. Reads were performed on a Spectramax M5 (Molecular Devices) in duplicate.
FIG. 7. […] BCL9 Competition FP assay: Peptide solutions were prepared in buffer (50 mM Tris pH 8.0, 250 mM NaCl, 2% glycerol, 0.5 mM EDTA, 0.02% w/v sodium azide) using a 3-fold serial dilution from 10 μM. Probe solution (250 nM full-length beta-catenin, 20 nM 5FAM labeled peptide in buffer) was prepared and 40 μL per well plated in a black polystyrene 384-well plate (Corning). Equal volume of the titrated peptide was added to the plate and incubated protected from light for 15 minutes prior to read. Reads were performed on a Spectramax M5 (Molecular Devices) in duplicate. Probe: Ac-[…]nLeu-Leu-2NapA-bala-bala-Lys5FAM-NH2 (SEQ ID NO: 2) (from Biochemistry, 2009, 48 (40), pp 9534-9541). Axin Competition FP assay: Peptide solutions were prepared in buffer (50 mM Tris pH 8.0, 250 mM NaCl, 2% glycerol, 0.5 mM EDTA, 0.02% w/v sodium azide) using a 3-fold serial dilution from 5 μM. Probe solution (15 nM full-length beta-catenin, 20 nM FITC labeled peptide in buffer) was prepared and incubated for 5 minutes, then 40 μL per well plated in a black polystyrene 384-well plate (Corning). Equal volume of the titrated peptide was added to the plate and incubated protected from light for 15 minutes prior to read. Reads were performed on a Spectramax M5 (Molecular Devices) in duplicate. Probe: FITC-StAx-33 from Grossmann et al. PNAS 109 17942-17947.
As to `CC[C@H](C)[C@@H]1NC(=O)[C@](C)(NC(=O)[C@H](C)NC(=O)[C@@H]2CCCN2C(C)=O)CCCC=CCCCCCC[C@@](C)(C(=O)N[C@@H](CCCNC(=N)N)C(=O)N[C@H](C(=O)N[C@@H](Cc2c[nH]c3ccccc23)C(N)=O)C(C)C)NC(=O)[C@H](C(C)C)NC(=O)[C@H](Cc2c[nH]cn2)NC(=O)[C@H](C)NC(=O)[C@H](CC(=O)O)NC(=O)[C@H](CC(C)C)NC1=O` (single isomer, unassigned) [FP0212s Isomer 2, Ac-P-A-R5-I-L-D-A-H-V-S8-R-V-W-NH2], the EC50 was in the range of 100 to 500 nM.

For the molecule `CC[C@H](C)[C@@H]1NC(=O)[C@H](Cc2c[nH]cn2)NC(=O)[C@H](C)NC(=O)[C@H](CC(=O)O)NC(=O)[C@H](CC(C)C)NC(=O)[C@H]([C@@H](C)CC)NC(=O)[C@](C)(NC(=O)[C@H](C)NC(C)=O)CCCCCCC=CCOC(=O)N2CC[C@@](C(=O)N[C@@H](CCCNC(=N)N)C(=O)N[C@H](C(=O)N[C@@H](Cc3c[nH]c4ccccc34)C(N)=O)C(C)C)(C2)NC1=O` (single isomer, unassigned) [FP0217c Isomer 1, Ac-AR8ILDAHIMBRVW (SEQ ID NO: 280)], the EC50 was 500 to 5000 nM.

With `CC[C@H](C)[C@@H]1NC(=O)[C@H](Cc2c[nH]cn2)NC(=O)[C@H](C)NC(=O)[C@H](CC(=O)O)NC(=O)[C@H](CC(C)C)NC(=O)[C@H]([C@@H](C)CC)NC(=O)[C@](C)(NC(=O)[C@H](C)NC(C)=O)CCCCCCC=CCCC[C@@](C)(C(=O)N[C@@H](CCCNC(=N)N)C(=O)N[C@H](C(=O)N[C@@H](Cc2c[nH]c3ccccc23)C(N)=O)C(C)C)NC1=O` (single isomer, unassigned) [FP0217s Isomer 1, Ac-A-R8-I-L-D-A-H-I-S5-R-V-W-NH2], the EC50 was less than 100 nM.

Consider `CC[C@H](C)[C@@H]1NC(=O)[C@H](Cc2c[nH]cn2)NC(=O)[C@H](C)NC(=O)[C@H](CC(=O)O)NC(=O)[C@H](CC(C)C)NC(=O)[C@H]([C@@H](C)CC)NC(=O)[C@](C)(NC(=O)[C@H](C)NC(C)=O)CCCCCCC=CCCC[C@@](C)(C(=O)N[C@@H](CCCNC(=N)N)C(=O)N[C@H](C(=O)N[C@@H](Cc2c[nH]c3ccccc23)C(N)=O)C(C)C)NC1=O` (single isomer, unassigned) [FP0217s Isomer 2, Ac-A-R8-I-L-D-A-H-I-S5-R-V-W-NH2], for which the EC50 is less than 100 nM.

For the molecule `CC[C@H](C)[C@@H]1NC(=O)[C@H](Cc2c[nH]cn2)NC(=O)[C@H](C)NC(=O)[C@H](CC(=O)O)NC(=O)[C@H](CC(C)C)NC(=O)[C@H]([C@@H](C)CC)NC(=O)[C@](C)(NC(=O)[C@H](C)NC(C)=O)CN(C)C(=O)OCC=CCCCCCC[C@@](C)(C(=O)N[C@@H](CCCNC(=N)N)C(=O)N[C@H](C(=O)N[C@@H](Cc2c[nH]c3ccccc23)C(N)=O)C(C)C)NC1=O` (single isomer, unassigned) [FP0335c Isomer 1, Ac-A-ME-I-L-D-A-H-I-S8-R-V-W-NH2], the EC50 fell in the range of 100 to 500 nM.

In the case of `CC[C@H](C)[C@@H]1NC(=O)[C@H](Cc2c[nH]cn2)NC(=O)[C@H](C)NC(=O)[C@H](CC(=O)O)NC(=O)[C@H](CC(C)C)NC(=O)[C@H]([C@@H](C)CC)NC(=O)[C@](C)(NC(=O)[C@H](C)NC(C)=O)CN(C)C(=O)OCC=CCCCCCC[C@@](C)(C(=O)N[C@@H](CCCNC(=N)N)C(=O)N[C@H](C(=O)N[C@@H](Cc2c[nH]c3ccccc23)C(N)=O)C(C)C)NC1=O` (single isomer, unassigned) [FP0335c Isomer 2, Ac-A-ME-I-L-D-A-H-I-S8-R-V-W-NH2], the EC50 was less than 100 nM.

With `CC[C@H](C)[C@@H]1NC(=O)[C@H](Cc2c[nH]cn2)NC(=O)[C@H](C)NC(=O)[C@H](CC(=O)O)NC(=O)[C@H](CC(C)C)NC(=O)[C@H]([C@@H](C)CC)NC(=O)[C@](C)(NC(=O)[C@H](C)NC(C)=O)CCCCCCC=CCOC(=O)N2CC[C@@](C(=O)N[C@@H](Cc3cccc4ccccc34)C(=O)N[C@H](C(=O)N[C@@H](Cc3c[nH]c4ccccc34)C(N)=O)C(C)C)(C2)NC1=O` (single isomer, unassigned) [FP0365c Isomer 1, Ac-A-R8-I-L-D-A-H-I-MB-1NapA-V-W-NH2], the EC50 lay within 500 to 5000 nM.
